Measured values reported in publication PMC3836994, “Killer Bee Molecules: Antimicrobial Peptides as Effector Molecules to Target Sporogonic Stages of Plasmodium” (PLoS Pathogens, 2013).
Values joined by “and” are separate entries in the source; they are usually repeats but may differ in a detail not shown here. Equal entries are not always repeated. “Also recorded” adds a separate entry of the source.

Tests used:
[1] = tested on: P. falciparum; settings: added to blood meals at 30 µM; ref [35]; cited from earlier work
Protocol: Some candidate AMPs were additionally investigated using P. falciparum and An. gambiae. TP10 dimer and Melittin lowered both prevalence and intensity of P. falciparum infections produced from laboratory cultures. It has already been reported that the monomer of TP10, added to blood meals at 30 µM, reduced parasite prevalence by 35–45% [35].

[2] = tested on: P. berghei ookinetes; assay: P. berghei ookinete viability in vitro (erythrosin B); format: cell-based, Plasmodium berghei; settings: 30 min; for Reduction in ookinete viability: versus control
Protocol: Our primary aim was to target parasites in mosquitoes before they cross the midgut wall, therefore AMPs were first assessed for their ability to kill ookinetes in vitro. […] Ookinete cultures of P. berghei were established from gametocytaemic blood as previously described. Parasites were enriched using cold 0.17M ammonium chloride after 18 h of culture and washed thoroughly with PBS (phosphate buffered saline). Parasites were seeded in triplicate wells of a 96-well microtitre plate at a density of 1×10^5/ml in a volume of 47.5 µl Schneider's insect medium (Invitrogen) with 2.5 µl of the test AMP (final concentration of 50 µM). Ookinetes were incubated for 30 min in conjunction with triplicate control wells containing medium with 2.5 µl of water instead of AMP. A sub-sample of parasites was then added to an equal volume of 5% erythrosin B to assess viability (150 ookinetes in total, taken from 3 wells). Each of the 33 AMPs was screened in this way and assays were performed 3 times. AMPs displaying a high degree of toxicity (>90% of ookinetes displaying erythrosin B staining) underwent further ookinete assays using a concentration of 100 µM AMP. To assess synergistic effects, combinations of two peptides were also tested at a concentration of 25 µM per AMP, in the assay described above.

[3] = tested on: Anopheles gambiae Sua 4.0 cells; assay: Sua 4.0 mosquito cell viability (erythrosin B exclusion); format: cell-based; parameters: dose or concentration left out as unconfirmed; settings: after 48 h culture
Protocol: (§1) To establish potential effects of AMPs on mosquito cells, the An. gambiae Sua 4.0 cell line was used. This facilitated an initial high-throughput screening and provided insights into AMP toxicity, mode of action (lytic or other) and speed of action. Sua 4.0 cells were maintained at 27°C in Schneider's insect medium supplemented with 10% FBS (foetal bovine serum) in T25 culture flasks (Fisher, UK).
(§2) Each AMP was tested separately to establish if it affected cell viability and growth. […] Cells were maintained for 3, 6, 24 or 48 h, after which they were resuspended and a sub-sample from duplicate wells counted using a haemocytometer. To establish cell viability after 48 h (whether simply arrested in development or non-viable), resuspended cells were added to an equal volume of 5% erythrosin B vital dye and viable cells excluding the stain were counted. The viability of 100 cells in triplicate wells was recorded. Each AMP assay was performed in triplicate and included a negative control minus the peptide (5 µl of water alone added to the medium) and a further control of 5 µl of 10% SDS (sodium dodecyl sulphate) substituted for the AMP as this causes 100% cell lysis.

[4] = tested on: Anopheles gambiae Sua 4.0 cells; assay: Sua 4.0 mosquito cell growth (cell counts); format: cell-based; settings: 25 µM AMP; for Average number of cells over 3 replicates, peptide: seeded 30×10^4/ml, mean of 3 experiments
Protocol: as §1, §2

[5] = tested on: P. berghei; assay: P. berghei infections in Anopheles stephensi (oocyst prevalence and intensity); format: in vivo, Plasmodium berghei; settings: for Prevalence (proportion of infected mosquitoes), peptide: 50 µM peptide in gametocytaemic mouse blood fed to An. stephensi; for Intensity (mean number of oocysts, range in parentheses), peptide: 50 µM peptide, An. stephensi
Protocol: To assess the effects of AMPs on parasites in vivo, mouse blood containing P. berghei gametocytes was obtained by cardiac puncture and 475 µl was rapidly mixed with 25 µl (50 µM final concentration) of AMP. This mixture was fed to 100 nulliparous 3–5 day old female An. stephensi. A further 475 µl of blood from the same infection was mixed with 25 µl of distilled water to act as a control. Mosquitoes were maintained at 19°C for optimum parasite development. Between 30 and 50 mosquitoes were dissected after 10 days. Mosquito wing length, numbers of retained eggs and oocysts were recorded in triplicate experiments carried out on different mosquito cohorts.

[6] = tested on: P. falciparum; assay: Cultured P. falciparum gametocytes membrane-fed to An. gambiae (oocyst prevalence and intensity); format: in vivo, Plasmodium falciparum; settings: 50 µM; for Oocyst intensity (mean number of oocysts per gut, range in parentheses), peptide / Oocyst prevalence (oocyst positive mosquitoes), peptide: cultured gametocytes, An. gambiae
Protocol: P. falciparum NF54 gametocytes were produced through large-scale automated culture at the Pasteur Institute, Paris, [69]. Gametocytes were grown in 10 ml RPMI 1640 medium (Invitrogen), supplemented with 25 mM HEPES and L-glutamine, 10% heat-inactivated human serum and hypoxanthine (20 mg/L) under a constant gas supply (5% CO2, 1% O2, 94% N2). Fresh red blood cells (RBCs) were added to obtain a 7% haematocrit. Fourteen days after initiating the culture, gametocyte maturity was assessed on thin Giemsa-stained blood smears, and male gametocyte maturity verified by exflagellation tests. Gametocyte cultures were centrifuged for 5 min at 1500 rpm and the ∼500–600 µl pellet resuspended in fresh RBCs and AB human serum to give a final haematocrit of 40%.
Blood containing mature gametocytes (475 µl) was added to 25 µl of the test AMP (50 µM final concentration). Peptides were replaced by 25 µl of sterile deionized water for each control. The blood/parasite/peptide mixture was placed in a Hemotek membrane feeder, previously warmed to 37°C. For each feed, 70 to 100 nulliparous female An. gambiae mosquitoes were left to feed in the dark for 15 min and only fully engorged females were transferred to small cages and provided with 10% sucrose containing 0.05% PABA. After 8 days, 30 midguts were dissected and stained with bromo fluorescein for the detection of oocysts.

[7] = tested on: An. gambiae (Mali strain); assay: Mosquito longevity after blood feeds containing AMP; format: in vivo, Anopheles gambiae; settings: for Significance of effect on longevity over 10 days: 50 µM AMP, Kaplan-Meier, Wilcoxon, peptide vs control; for Percent alive, peptide: over 10 days, 50 µM AMP in human blood, feeds on days 0 and 7, 3 or 4 replicates
Protocol: (§3) Female An. gambiae (Mali strain, 3–5 days old) were used to establish the effects of AMPs on mosquito longevity and fecundity in the absence of confounding factors introduced with parasite infection. Two hundred 3–6 day old females were fed on human O+ whole blood supplemented with 50 µM AMP (or water control, 1 ml total volume) via feeding chambers of a Hemotek membrane feeding system. Fully engorged mosquitoes were randomly moved into four separate cages, each containing 25 mosquitoes, to facilitate monitoring. Mortality rates were recorded daily for a 10-day period, and oviposition sites were provided on the second and third night post-feeding. A second blood feed containing the same AMP was administered 7 days later to mimic the likelihood that mosquitoes would feed at least twice in the field during the development of sporogonic stages of the malaria parasite. Oviposition sites were again provided to assess fecundity through the number of eggs laid as an average per surviving mosquito. Assays for each AMP were repeated in triplicate on separate generations of mosquitoes. Due to egg retention under experimental conditions, egg production is best measured by dissecting mosquitoes that have not been provided with an oviposition site. However, this is not a feasible method of determining fecundity when longevity is also being measured.

[8] = tested on: An. gambiae (Mali strain); assay: Mosquito oviposition after blood feed containing AMP; format: in vivo, Anopheles gambiae; settings: for Significance of effect on oviposition: 50 µM AMP, one-way ANOVA, peptide vs control; for Mean no. of eggs laid per mosquito, peptide: after first feed with 50 µM AMP, eggs laid over two nights, averaged per surviving mosquito, 3 or 4 replicates
Protocol: as §3

[9] = tested on: An. gambiae (Mali strain); assay: Mosquito longevity after blood feeds containing AMP; format: in vivo, Anopheles gambiae; settings: 50 µM AMP in blood on days 0 and 7; extended to 30 days
[10] = tested on: P. falciparum; assay: Field P. falciparum from gametocyte carriers membrane-fed to An. gambiae (Mali); format: in vivo, Plasmodium falciparum; settings: Replicate 1, 50 µM
Description: Nyaganabougou, a village approximately 60 km south-west of the Malian capital, Bamako, was used as a site for the source of donors of malaria-infected blood. Due to its proximity to the river Niger, which provides perennial mosquito breeding sites, Nyaganabougou has high numbers of infected individuals and an extended transmission season. Mosquitoes used to establish the An. gambiae Mali colony used for this study were originally collected in the village of Kenieroba (a distance of 15 km from Nyaganabougou). Potential male and female gametocyte carriers between the ages of 6–10 were screened by thick smear and parasite species and density determined by local staff, led by Saibou Doumbia.
Gametocyte carriers were taken to the Malaria Research and Training Centre at the University of Bamako for blood donation. Approximately 4 ml of blood was extracted from carriers and immediately divided into 3 Hemotek membrane feeders for testing 2 separate AMPs and one control for each carrier. Peptides were added to 950 µl of gametocytaemic blood for a final concentration of 50 µM. All parasite-positive individuals were subsequently treated appropriately for parasites and associated symptoms, as determined by, and carried out by, local health workers in Nyaganabougou.
Approximately 120 adult female An. gambiae (Mali, 4–7 days old) were starved overnight, and allowed to feed on the gametocytaemic blood/AMP mix for 30 min. Engorged females were maintained on 10% glucose with 0.05% PABA for 8 days before dissection. No oviposition sites were provided so that fecundity could be measured by determining retained eggs. Mosquito wing length, numbers of retained eggs and oocysts were recorded, and triplicate peptide experiments were carried out on different mosquito cohorts, using blood from different donors. Where possible, a minimum of 50 mosquitoes were dissected for each condition.

[11] = 50 µM of single peptide, n = 150 ookinetes per treatment per replicate
[12] = 3 hrs in culture, haemocytometer count of duplicate wells
[13] = over the three replicates, 50 µM
[14] = Replicate 1, dissected after 8 days

## CC[C@H](C)[C@H](NC(=O)[C@H](CCCCN)NC(=O)[C@H](CCCCN)NC(=O)[C@H](C)NC(=O)[C@H](CC(C)C)NC(=O)[C@H](C)NC(=O)[C@H](C)NC(=O)[C@H](CC(C)C)NC(=O)[C@H](C)NC(=O)[C@H](CCCCN)NC(=O)[C@H](CC(C)C)NC(=O)[C@H](CC(N)=O)NC(=O)[C@@H](NC(=O)[C@H](CCCCN)NC(=O)CNC(=O)[C@H](CC(C)C)NC(=O)[C@H](CC(C)C)NC(=O)[C@H](Cc1ccc(O)cc1)NC(=O)CNC(=O)[C@H](C)N)[C@@H](C)CC)C(=O)N[C@@H](CC(C)C)C(=O)O [TP10]
[1]
  Reduction of parasite prevalence: 35–45%
[2]; [11]
  Average ookinete viability (3 reps), peptide: 26%
[2]; 50 µM of single peptide
  Reduction in ookinete viability: 71%
[3]; versus control
  Reduction in cell viability: 3%
[4]; 3 hrs in culture
  Reduction in cell number (compared to control): 31%
[4]; [12]
  Average number of cells over 3 replicates, peptide: 220000 mL⁻¹
[4]; 24 hrs in culture
  Reduction in cell number (compared to control): 23%
  Average number of cells over 3 replicates, peptide: 400000 mL⁻¹
[4]; 48 hrs in culture
  Reduction in cell number (compared to control): 3%
  Average number of cells over 3 replicates, peptide: 780000 mL⁻¹

## Melittin
[2]; [11]
  Average ookinete viability (3 reps), peptide: 0%
[2]; 50 µM of single peptide
  Reduction in ookinete viability: 100%
[5]; Replicate 1
  Prevalence (proportion of infected mosquitoes), peptide: 98% (50)
  Intensity (mean number of oocysts, range in parentheses), peptide: 50 (0–192)
[5]; Replicate 2
  Prevalence (proportion of infected mosquitoes), peptide: 82% (49)
  Intensity (mean number of oocysts, range in parentheses), peptide: 28 (0–160)
[5]; Replicate 3
  Prevalence (proportion of infected mosquitoes), peptide: 72% (50)
  Intensity (mean number of oocysts, range in parentheses), peptide: 31 (0–412)
[5]; [13]
  Average reduction of parasite prevalence: 10%
  Mean oocysts per midgut: 37 oocysts per midgut
[5]; over the three replicates, 50 µM, control mean 114 oocysts
  Reduction of infection intensity: 68%
[6]; Replicate 1
  Oocyst intensity (mean number of oocysts per gut, range in parentheses), peptide: 0
[6]; [14]
  Oocyst prevalence (oocyst positive mosquitoes), peptide: 0% (30)
[6]; Replicate 2
  Oocyst intensity (mean number of oocysts per gut, range in parentheses), peptide: <1 (0–1)
  Oocyst prevalence (oocyst positive mosquitoes), peptide: 17% (30)
[6]; Replicate 3
  Oocyst intensity (mean number of oocysts per gut, range in parentheses), peptide: 6 (0–74)
  Oocyst prevalence (oocyst positive mosquitoes), peptide: 37% (30)
[6]; over three replicates
  Average reduction of intensity of infection: 57%
  Average reduction of prevalence: 60%
[3]; erythrosin B exclusion, 100 cells in triplicate wells
  Average viability of cells (3 replicates), peptide: no intact cells remained; also recorded: No remaining cells
[7]
  Significance of effect on longevity over 10 days: N/S
  Percent alive, peptide: 84%
[4]; 3 hrs in culture
  Reduction in cell number (compared to control): 84%
[4]; [12]
  Average number of cells over 3 replicates, peptide: 50000 mL⁻¹
[4]; 24 hrs in culture
  Reduction in cell number (compared to control): 100%
  Average number of cells over 3 replicates, peptide: no cells remaining and 0 ×10^4/ml
[4]; 48 hrs in culture
  Reduction in cell number (compared to control): 100%
  Average number of cells over 3 replicates, peptide: 0 mL⁻¹
[8]
  Significance of effect on oviposition: N/S
  Mean no. of eggs laid per mosquito, peptide: 41

## Mastoparan X
[9]
  Effect on longevity over 30 days (in words): no significant long-term effects on longevity
[2]; [11]
  Average ookinete viability (3 reps), peptide: 41%
[2]; 50 µM of single peptide
  Reduction in ookinete viability: 57%
[2]; 100 µM of single peptide
  Average ookinete viability (3 reps), peptide: 4%
  Reduction in ookinete viability: 96%
[6]; Replicate 1
  Oocyst intensity (mean number of oocysts per gut, range in parentheses), peptide: 2 (0–11)
[6]; [14]
  Oocyst prevalence (oocyst positive mosquitoes), peptide: 47% (30)
[6]; Replicate 2
  Oocyst intensity (mean number of oocysts per gut, range in parentheses), peptide: 2 (0–29)
  Oocyst prevalence (oocyst positive mosquitoes), peptide: 40% (30)
[6]; Replicate 3
  Oocyst intensity (mean number of oocysts per gut, range in parentheses), peptide: 11 (0–72)
  Oocyst prevalence (oocyst positive mosquitoes), peptide: 60% (30)
[7]
  Significance of effect on longevity over 10 days: N/S
  Percent alive, peptide: 84%
[8]
  Significance of effect on oviposition: N/S
  Mean no. of eggs laid per mosquito, peptide: 44
[10]; blood of gametocyte carriers, progeny of field An. gambiae
  Oocyst prevalence (oocyst positive mosquitoes), peptide: 45% (40)
[10]; field parasites and mosquitoes
  Oocyst intensity (mean number of oocysts per gut, range in parentheses), peptide: 3 (0–21)
